Holding throughout (assay type): cell-based, human
One data set deals with HaCaT cells. The experiment in a line: MTT cell viability assay on HaCaT keratinocytes. The method, then:
Cell culture, pretreatment and stimulation. The immortalized human keratinocyte cell line HaCaT, fibroblast MRC5 were grown in Dulbecco's modified Eagle's medium-Glutamax-I (DMEM) with 1 mM sodium pyruvate. […] DMEM and RPMI were supplemented with 0.1% and 10% heat-inactivated fetal calf serum (Invitrogen), and an antibiotic/antimycotic solution (10 U/ml Pencillin, 10 μg/ml Streptomycin, 0.25 μg/ml Amphoterin) at 37° C. in humidified atmosphere containing 5% CO2 as described (Life Technologie). Primary human keratinocytes (NHDK) and fibroblast (HDF) were grown in the KGM-Gold and in FGM-2 Bullet Kit, respectively, as described by the manufacturer (Lonza). The immortalized cell lines were routinely tested to assess the absence of Mycoplasma infection. Cells, cultivated in 6- or 96-well polystyrene plates, were pretreated with appropriate molecule solution for 1 to 48 h at 37° C. in the dark at the appropriate concentration. Then, for stimulation, cells were incubated for 15 min to 24 h with the P. acnes suspension adjusted at the appropriate concentration at 37° C. in 5% CO2. For experiences using an in vitro model of psoriasis, the primary human keratinocytes (NHDK) were grown in culture medium for 24 hours.
Cell viability assays. Viability of cells was estimated by using the MTT assay where cells were incubated with a 0.2% MTT solution in cell culture medium for 4 h at 37° C. The MTT solution was then discarded and DMSO added to solubilize the MTT-formazan cristals produced in living cells. After thorough mixing, the absorbance was measured at 540 nm.
In general terms: Tetrazolium assays rely on reduction of a dye to a coloured formazan, in cell work by metabolically active cells.

The subject of a further data set is TNF-α production. The data set can be described thus: TNF-α production by the monocytic cell line. As to conditions: data not shown. Here is the method:
(§1) ELISA. Human IL-1β, IL-8, hBD-2 and TNF-α protein concentration were measured in the supernatants of stimulated cells using various ELISA Sets (all from Ready-Set-Go from eBioscience, except hBD-2 measurements: Human DEFB4A/BD-2 ELISA Kit from LSBio) according to the manufacturer's instructions. We used serial dilutions of recombinant human IL-1β, IL-8, hBD-2 and TNF-α for standard curve. The optical density was determined at 450 nm at a wavelength correction of 540 nm.
Both molecules, were tested to inhibit the production of IL-1β by the monocytic cell line. ThP-1 cells were pretreated with diclazuril and meclozine, at the concentrations ranging from 0.39 to 50 μM, for 24 h and then stimulated with P. acnes suspension as described in Materials and Methods. The production of IL-1β was measured on culture supernatant by ELISA and the viability of cells was estimated by MTT assay (FIG. 2).

Another data set relates to IL-1β mRNA. The experiment in a line: RT-qPCR of P. acnes-induced IL-1β mRNA in ThP-1 cells. To be noted: 10 μM, 24 h pre-treatment, 5 h P. acnes. Background: In qPCR the cycle at which signal appears reflects the starting amount.
For the next data set, the system named is ERK. The experiment in a line: Western blot of p-ERK/ERK in P. acnes-stimulated HaCaT cells. To be noted: 24 h pre-treatment; for phosphorylation of ERKs induced by P. acnes: 10 μM; for phosphorylation of ERK induced by P. acnes: 25 μM. Here is the method:
Western Blot analysis. Whole cell protein extracts (25 μg) were separated by electrophoresis (LDS-PAGE) under denaturing conditions with NuPAGE Novex 4-12% Bis-Tris gel (1 mm, 12 wells, Invitrogen, UK) and proteins were transferred onto nitrocellulose membranes and saturated in 20 ml of saturation buffer consisting of TBS 1× (Tris Buffered Saline) containing 200 mM Tris, 1.4 M NaCl (pH 7.6), 5% no fat milk, 0.1% Tween 20 for 1 h. After washing three times for 15 min with 15 ml of TBS/T buffer [1×TBS, 0.1% Tween-20], membranes were incubated overnight with gentle mixing at 4° C. with 10 ml of rabbit polyclonal primary antibodies against human ICAM-1 (SC-7891, 1:500), PPARα (SC-398394, 1:250), PPARβ (SC-74517, 1:200), PPARγ (SC-7196, 1:500), IκB (SC-371, 1:500), p-IκB (SC-7977, 1:500), Cox-2 (SC-7951, 1:250), p-mTOR (CS, Ref 2974, 1:1000), mTOR (CS, Ref 2972, 1:1000), p-p38 (SC-17852, 1:500), p38 (SC-535, 1:250), ERK (SC-94, 1:500), JNK (SC-571, 1:500), and mouse monoclonal primary antibodies against human p-PI3 kinase (CS, Ref 4228, 1:250), PI3 kinase (CS, Ref 4257, 1:250), p-Akt1/2/3 (SC-81433, 1:500), p-ERK (SC-7383, 1:500), p-JNK (SC-6254, 1:500), -actin used to control loading, (SC-47778, 1:1000) diluted in TBS/T supplemented with 5% BSA (antibodies were purchased from Santa Cruz Biotechnology, Inc., Santa Cruz, Calif., USA abbreviated SC; and from Cell Signaling Technology, Inc. Leiden, The Netherlands abbreviated CS above). After washing to remove unbound antibodies, bound primary antibodies were detected by incubation for 1 h using secondary antibody against rabbit- and mouse IgG (Santa Cruz Biotechnology, SC-2357, 1:5000 and SC-2005, 1:5000, respectively). Unbound material was removed by washing and peroxidase activity was detected in a chemiluminescence assay (WesternBright ECL, Advansta, Menlo Park, USA).
The molecular basis for the inhibition of IL-8 production by diclazuril and meclozine has been investigated, in particular it has been evaluated if they interfered with signaling pathways known to be activated when keratinocytes are stimulated with P. acnes. It has first been confirmed the activation of IL-8 production when cells were stimulated by P. acnes while pre-treatment with both, diclazuril and meclozine, inhibit such production (FIG. 4A).
We also shown that the activation of HaCaT keratinocytes by P. acnes led to the activation of p-ERK, p-p38, p-JNK, p-PKC, p-Akt, p-mTOR (FIG. 15, panel P. acnes alone) and p-PI3K (FIG. 16, panel P. acnes alone).

The next data set has as its system IL-1β production. The experiment in a line: PGN- and LTA-induced IL-1β production in ThP-1 monocytes (ELISA). As to conditions: ThP-1, 6.25 μM, 24 h pre-treatment, PGN or LTA 5-20 μg/ml. The method, then: as §1
For orientation: In an ELISA, binding on a coated surface is turned into a signal by an enzyme label.

The next data set relates to IL-8 production. The data set can be described thus: IL-8 production by M5-stimulated NHDK, in vitro psoriasis-like model (ELISA). To be noted: NHDK + M5, 48 h. The method, then: Cell culture, pretreatment and stimulation.
as §1

pIC50: −log10 of the molar value. Bounds are passed on as bounds.

Experimental for IL-1β mRNA: RT-qPCR assay. […] Total RNA was isolated using the NucleoSpin RNA and treated with DNAse I, according to the manufacturer's instructions (Macherey-Nagel, Hoerdt, France). RNA concentration was determined at 260 nm on a nanodrop (Labtech, France) and the ratios for all samples were ranging between 1.6 and 1.9. Complementary DNA were generated from 100 ng of total RNA at 50° C. for 10 min followed by the quantitative PCR analysis, carried out in the LightCycler Nano (Roche), and performed with the iTaq Universal SYBR Green One-Step kit (Bio-Rad Laboratories, Hercules, Calif., USA) with a 2-step cycles conditions set at 95° C. for 60 s followed by 40 cycles of 95° C. for 15 s, 68° C. for 60 s, and ended by a melting curve at 65-95° C., 60 s with 0.1° C./s. From the amplification curves, the threshold cycles (Ct) are determined for the studied genes. The amount of relative RNA in stimulated cells relative to control cells is calculated according to the method of 2Act and expressed as a relative fold change expression normalized to gene expression of internal control (GAPDH). IL-8 primers were used: sens 5′-[sequence]-3′, anti-sens 5′-[sequence]-3′ and GAPDH primers: sens 5′-[sequence]-3′, GADPH anti-sens 5′-[sequence]-3′. Sample quantification was made in triplicate.
Controls experiments were done with unpretreated/unstimulated cell and with P. acnes stimulated cells only.

Take `N#CC(c1ccc(Cl)cc1)c1c(Cl)cc(-n2ncc(=O)[nH]c2=O)cc1Cl` (stereo not drawn) [diclazuril, Diclazuril]: in the data set with HaCaT cells, the “impact on cell viability (MTT), 48 h pre-treatment” value is “without any major impact on cell viability”. In addition, in the data set with TNF-α production, the “inhibition of TNF-α production” value was “no effect”. Moreover, in the data set with IL-1β mRNA, the “inhibition of IL-1β mRNA production” value was “up to 91%”. Moreover, in the data set on ERK, the “phosphorylation of ERKs induced by P. acnes” value is on record as “prevented the phosphorylation of ERKs” and the “phosphorylation of ERK induced by P. acnes” value was “prevented the phosphorylation”. Moreover, in the data set with IL-1β production, the “decrease of IL-1β production (average)” value amounted to 64%. In the data set with IL-8 production (Homo sapiens, read-out: IC50 of decrease of IL-8 production), the pIC50 (commonly the IC50 on a negative log10 scale, so that one unit is a factor of ten) was 5.52 to 5.70. In the data set with IL-8 production (at 3,125 μM), the “decrease of IL-8 production” value was 66%.

As for `Cc1cccc(CN2CCN(C(c3ccccc3)c3ccc(Cl)cc3)CC2)c1` (stereo not drawn) [meclozine, Meclozine], in the data set on HaCaT cells, the “impact on cell viability (MTT), 48 h pre-treatment” value is listed as “without any major impact on cell viability”. Moreover, the “inhibition of TNF-α production” value in the data set with TNF-α production is given as “no effect”. Besides, the “inhibition of IL-1β mRNA production” value in the data set with IL-1β mRNA is listed as not above 38%. Also, in the data set with ERK, the “phosphorylation of ERKs induced by P. acnes” value was “prevented the phosphorylation of ERKs” and the “phosphorylation of ERK induced by P. acnes” value is recorded as “prevented the phosphorylation”. Further, in the data set with IL-1β production, the “decrease of IL-1β production (average)” value amounted to 36%. For the same compound, the “effect on IL-8 production, in words” value with IL-8 production (0.39 to 12.5 μM) was “no effect”.

These data come from US11617748B2, “Meclozine derivatives and diclazuril derivatives for use in the prevention and/or the treatment of disorders associated to the inflammation induced by P. acnes” (priority 2016, dated 2023).
